Assay [1] concerns NRS 271. Description: Minimum Inhibitory Concentration (MIC) assay. Type of assay: cell-based, S. aureus. The procedure:
(§1) The Minimum Inhibitory Concentrations (MIC) of each protein for multiple S. aureus strains was determined as previously described (Jones et al. 1985. In: Manual of Clinical Microbiology, Eds. Balows et al. American Society of Microbiology, Washington D.C., pp. 972-977) with the following modifications. Enzymes were serially diluted two fold across a 96 well plate, such that after dilution, 50 μl of the enzyme solution in 300 mM NaCl, 50 mM NaH2PO4, 30% glycerol pH 7.5, remained in each well. To each well was added 50 μl of TSB and 100 μl of S. aureus Newman in TSB (diluted to 5×10^6 cells/ml). The plates were incubated 20 h at 37° C. and read with a 96 well plate reader. MIC determination values were reported as the median of ≧4 replicates (Table 1).

Assay [2] relates to NRS 193. Description: Minimum Inhibitory Concentration (MIC) assay. It is filed as cell-based, S. aureus. The procedure: as §1
Assay [3] deals with USA 200 (NRS 383). Description: Minimum Inhibitory Concentration (MIC) assay. Type of assay: cell-based, S. aureus. The procedure: as §1
For assay [4], the system named is USA 500 (NRS 385). Description: Minimum Inhibitory Concentration (MIC) assay. Type of assay: cell-based, S. aureus. The procedure: as §1
Assay [5] has as its system NRS 209. As to the kind of experiment: Minimum Inhibitory Concentration (MIC) assay. Type of assay: cell-based, S. aureus. The procedure:
as §1

Assay [6] relates to Sanger 252 (NRS 71). As to the kind of experiment: Minimum Inhibitory Concentration (MIC) assay. Type of assay: cell-based, S. aureus. The procedure: as §1
Assay [7] deals with NRS 194. As to the kind of experiment: Minimum Inhibitory Concentration (MIC) assay. Type of assay: cell-based, S. aureus. The procedure: as §1
The subject of assay [8] is NRS 192. Description: Minimum Inhibitory Concentration (MIC) assay. Type of assay: cell-based, S. aureus. The procedure:
as §1

In assay [9] the test system is S. xylosus MP05. As to the kind of experiment: Minimum Inhibitory Concentration (MIC) assay. It is filed as cell-based, Staphylococcus xylosus. The note with it: Mastitis isolate S. xylosus MP05.
The subject of assay [10] is S. hyicus MP01. Description: Minimum Inhibitory Concentration (MIC) assay. It is filed as cell-based, Staphylococcus hyicus. The note with it: Mastitis isolate S. hyicus MP01.
Assay [11] has as its system S. aureus ALR. As to the kind of experiment: Minimum Inhibitory Concentration (MIC) assay. The note with it: S. aureus ALR. Type of assay: cell-based. The procedure: as §1
The subject of assay [12] is S. aureus Newman. As to the kind of experiment: Minimum Inhibitory Concentration (MIC) assay. The note with it: for Minimum Inhibitory Conc. (median μg/ml): S. aureus Newman. Type of assay: cell-based. The procedure: as §1
Assay [13] concerns S. aureus Newbould 305. Description: Minimum Inhibitory Concentration (MIC) assay. The note with it: Mastitis isolate S. aureus Newbould 305. Type of assay: cell-based. The procedure:
as §1

Assay [14] concerns S. simulans MP03. Description: Minimum Inhibitory Concentration (MIC) assay. To be noted: Mastitis isolate S. simulans MP03. It is filed as cell-based, Staphylococcus simulans.
In assay [15] the test system is S. warneri MP06. Description: Minimum Inhibitory Concentration (MIC) assay. Type of assay: cell-based, Staphylococcus warneri. The note with it: Mastitis isolate S. warneri MP06.
Assay [16] relates to S. aureus SA113 biofilms. Description: Static biofilm reduction model. Type of assay: cell-based. To be noted: 1 h treatment, compared to buffer treated biofilms. The procedure:
S. aureus SA113 biofilms were treated for 1 h with 100 μl of each enzyme individually or as equimolar mixtures of LysK and lysostaphin (white bars) in 300 mM NaCl, 50 mM NaH2PO4, 30% glycerol. Constructs are named as in FIG. 1a. Results are reported as the percentage reduction in biofilm compared to buffer treated biofilms. Data presented represents 4 replicates. Values represent means±[…]. Asterisks indicate significant differences (single factor ANOVA with t-test post hoc analysis Sidák correction) as compared to LysK (K) at that concentration. Adjusted alpha p<0.026. Peptidoglycan hydrolase constructs: lysostaphin (L), LysK (K), triple fusion K-L, and triple fusion (L-K), as named in FIG. 1a.
In the static biofilm reduction model, biofilms were produced as previously described (Gross et al. 2001. Infect. Immun. 69:3423-3426) with the following modifications. S. aureus strains were grown overnight in 5 ml TSB supplemented with 0.25% D(+)-glucose without shaking at 37° C. The culture was diluted 1/200 in fresh culture medium, and 200 μl was added to each well of a 96 well microtiter plate and incubated without shaking for 24 h at 37° C. Biofilms in the wells were washed twice with 200 μl SLB, treated with […] peptidoglycan hydrolase (Lysostaphin, LysK and the triple fusion proteins K-L and L-K) in SLB at concentrations indicated (FIG. 4) for 1 h at room temperature, and washed twice with 100 μl SLB. Adherent bacteria were fixed with 200 μl 95% ethanol-5% glacial acetic acid for 20 min, washed once with water, and stained with 100 μl 0.4% crystal violet for 15 min at room temperature. Excess stain was removed with 3 water washes. Bound stain was resolubilized in 33% acetic acid, and 20 μl was transferred to a 96 well plate containing 180 μl water. The OD590nm was determined in a Spectra Max plate reader. Percent reduction represents the difference in absorbance between biofilms exposed to buffer only and experimental wells that were exposed to the peptidoglycan hydrolases.
Static biofilms were created with S. aureus strain SA113 in 96 well dishes and treated for one hour with 100 μl of the indicated concentrations of each enzyme individually or as an equimolar mixture of LysK and lysostaphin.

Assay [17] deals with S. chromogenes MP02. Description: Minimum Inhibitory Concentration (MIC) assay. It is filed as cell-based, Staphylococcus chromogenes. The note with it: Mastitis isolate S. chromogenes MP02.
Assay [18] deals with S. aureus strain Newman. It is filed as cell-based. To be noted: tenth round compared to first exposure. The procedure: For the MIC repeated exposure method, MIC determinations were performed with S. aureus strain Newman. 100 μl of S. aureus strain Newman culture that survived at ½ the MIC (the first well with visible growth) for each round was inoculated into 5 ml TSB and cultivated to mid-log phase growth. This culture was used as the inoculum for the next round of MIC exposure (overnight growth), and the cycle was repeated for 10 rounds.
Development of resistance to the triple-acting fusion enzymes was tested on S. aureus strain Newman and compared to both parental enzymes applied individually or simultaneously. […] Survivors of the ten round exposure to peptidoglycan hydrolase were passaged five times in medium with no peptidoglycan hydrolase added. […] We compared our triple-acting fusions to small molecule antibiotics in similar assays.

Setting [19] is: first exposure of the resistance development experiment, FIG. 1b.
Setting [20] is: first exposure, molar concentration in brackets.

Consider “K-L: both LysK lytic domains fused to the N-terminus of lysostaphin; SEQ ID NO:5, protein SEQ ID NO:6”, for which the “Minimum Inhibitory Conc. (median μg/ml)” value is 7.0 µg/mL in assay [1]; 7.0 µg/mL in assay [2]; 5.5 µg/mL in assay [3]; 7.0 µg/mL in [4]; 7.0 µg/mL in [5]; 5.5 µg/mL in [6]. Moreover, the “Minimum Inhibitory Conc. (median μg/ml)” value in [7] was 14 µg/mL; in assay [8], 11 µg/mL; in assay [9], 3.5 µg/mL; in assay [10], 1.8 µg/mL; in assay [11] it was 7.0 µg/mL; in assay [12], 7.0 µg/mL. Further, the “Minimum Inhibitory Conc. (median μg/ml)” value turned out to be 11 µg/mL in [13], 3.5 µg/mL in [14], 5.3 µg/mL in assay [15] and 3.5 µg/mL in assay [17]. Further, the “First exposure MIC” value in [12] (setting [19]) was 7 µg/mL; in [12] (setting [20]), 0.097 µM. Besides, the “static biofilm reduction (in words)” value in [16] is given as “effectively reduced staphylococcal biofilms”. Also, in assay [18], the “increase in MIC after 10 rounds of sub-lethal exposure” value (shortened to “increase in MIC after 10 rounds”) came out at 8 fold.
With “L: 247 amino acid mature (secreted) lysostaphin, staphylolytic bacteriocin, C-terminal His6 tag; SEQ ID NO:1 [reference compound]”, the “Minimum Inhibitory Conc. (median μg/ml)” value in assay [1] amounted to 0.58 µg/mL; in assay [2], 1.2 µg/mL; in [3], 1.2 µg/mL; in assay [4], 1.2 µg/mL; in [5], 0.97 µg/mL; in [6], 0.58 µg/mL. Moreover, the “Minimum Inhibitory Conc. (median μg/ml)” value was found to be 1.2 µg/mL in [7]; 1.2 µg/mL in assay [8]; 0.39 µg/mL in assay [9]; 0.29 µg/mL in assay [10]; 0.77 µg/mL in assay [11]; 0.77 µg/mL in assay [12]. Besides, the “Minimum Inhibitory Conc. (median μg/ml)” value in assay [13] was found to be 12 µg/mL; in [14], 1.5 µg/mL; in [15], 1.5 µg/mL; in assay [17], 0.58 µg/mL. The entries for the “First exposure MIC” value in [12] (setting [19]) and in [12] (setting [20]) were 0.77 µg/mL and 0.027 µM, respectively. Further, the “static biofilm reduction (in words)” value in [16] is given as “effectively reduced staphylococcal biofilms”. Further, in assay [18], the “increase in MIC after 10 rounds” value is recorded as 585 fold.

B1: K: 495 amino-acid staphylococcal phage K endolysin LysK, C-terminal His6 tag; SEQ ID NO:3 (protein)
chain: MAKTQAEINKRLDAYAKGTVDSPYRVKKATSYDPSFGVMEAGAIDADGYYHAQCQDLITDYVLWLTDNKVRTWGNAKDQIKQSYGTGFKIHENKPSTVPKKGWIAVFTSGSYEQWGHIGIVYDGGNTSTFTILEQNWNGYANKKPTKRVDNYYGLTHFIEIPVKAGTTVKKETAKKSASKTPAPKKKATLKVSKNHINYTMDKRGKKPEGMVIHNDAGRSSGQQYENSLANAGYARYANGIAHYYGSEGYVWEAIDAKNQIAWHTGDGTGANSGNFRFAGIEVCQSMSASDAQFLKNEQAVFQFTAEKFKEWGLTPNRKTVRLHMEFVPTACPHRSMVLHTGFNPVTQGRPSQAIMNKLKDYFIKQIKNYMDKGTSSSTVVKDGKTSSASTPATRPVTGSWKKNQYGTWYKPENATFVNGNQPIVTRIGSPFLNAPVGGNLPAGATIVYDEVCIQAGHIWIGYNAYNGNRVYCPVRTCQGVPPNQIPGVAWGVFKLEHHHHHH
modifications: C-terminal His6 tag; Phage K
For the molecule B1, the “Minimum Inhibitory Conc. (median μg/ml)” value in assay [1] was found to be 44 µg/mL; in assay [2], 37 µg/mL; in [3], 34 µg/mL; in [4], 67 µg/mL; in assay [5], 40 µg/mL; in [6], 29 µg/mL. For the same molecule, the “Minimum Inhibitory Conc. (median μg/ml)” value in assay [7] came out at 69 µg/mL; in assay [8], 80 µg/mL; in assay [9] it was 8.4 µg/mL; in [10], 8.4 µg/mL; in [11] it was 34 µg/mL; in [12] it was 47 µg/mL. In addition, the “Minimum Inhibitory Conc. (median μg/ml)” value is 34 µg/mL in assay [13], 20 µg/mL in assay [14], 28 µg/mL in assay [15] and 16 µg/mL in assay [17]. The entries for the “First exposure MIC” value in [12] (setting [19]) and in assay [12] (setting [20]) were 47 µg/mL and 0.84 µM, respectively. Further, in assay [16], the “static biofilm reduction (in words)” value is “effectively reduced staphylococcal biofilms”. Besides, the “increase in MIC after 10 rounds” value in assay [18] was found to be 42 fold.
